Measurements published in PubChem BioAssay AID588620 (NMMLSC, 2011).
The source made the active and inactive calls.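 Rule for the calls: active = fitted half-maximal concentration below 30 µM for cell fluorescence in pump-free yeast, so likely self-fluorescent; inactive = the rest.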

Assay: concentration-dependent intrinsic compound fluorescence, S. cerevisiae AD/pABC3, flow cytometry, Cherry Pick1 hits, artefact control for antifungal efflux pump inhibitor project, dose response (AID 588620);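 note: red emission of unstained cells excited at 488 nm measured in PE-Texas Red channel; cell median fluorescence as percent of DMSO wells so 100% equals vehicle baseline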
Settings: S. cerevisiae AD/pABC3 compound autofluorescence, flow cytometry; at 33.1 µM (top of the series)

Compound | fluorescence response, % of control
COc1ccc2cc(C#N)c(N3CCN(Cc4nnnn4CCC(C)C)CC3)nc2c1 | 113% (inactive)
COc1cc(OC)cc(-c2sc3ccc(OC)cc3c2-c2ccc(OCCN3CCCCC3)cc2)c1 | 122% (inactive)
O=C1C(Cc2ccccc2)Nc2ncnc(N3CCN(c4ccccc4)CC3)c2N1Cc1ccccc1 (centres undefined) | 105% (inactive)
COc1ccc(CNC(=O)C(=O)NCC2OCCN2S(=O)(=O)c2ccc(OC)c(OC)c2)cc1 (centres undefined) | 99.3% (inactive)
COc1ccc(-c2ccc3c(c2)S(=O)(=O)c2cccc(C(=O)NC4CCCCC4)c2C3=O)cc1OC | 106% (inactive)
COCCn1c(=S)[nH]c2sc3c(c2c1=O)CCCC3 | 91.7% (inactive)
Cc1ccc(O)c(C(=O)c2cnc3c(c2)CN(CCC(C)C)C(=O)N3)c1 | 102% (inactive)
COC(=O)c1ccc(CSc2nnc3c(n2)[nH]c2ccccc23)cc1 | 139% (inactive)
COc1ccc2c(-c3ccc(OCCN4CCCCC4)cc3)c(-c3ccccc3OC)sc2c1 | 102% (inactive)
O=C(O)C(c1ccccc1)N1C(=O)/C(=C\c2ccc(O)c(O)c2)SC1=S (centres undefined) | 226% (inactive)
COc1ccc(-c2sc3ccccc3c2-c2ccc(OCCN3CCOCC3)cc2)cc1 | 111% (inactive)
CCCOc1ccc(/C=c2\sc3nc(-c4ccco4)nn3c2=O)cc1OCC | 95.1% (inactive)
O=C(c1ccoc1)N1CCC2(CC1)Oc1ccc(Cl)cc1C(=O)C21CC(c2ccc(Cl)cc2)=NO1 (centres undefined) | 119% (inactive)
CCCOc1ccc(-c2nc(N3CCN(C)CC3)c3ccccc3n2)cc1 | 95.7% (inactive)
COc1ccc(C2=NCC(=O)N(CC(=O)NCc3ccco3)c3sc4c(c32)CCCC4)cc1 | 95.7% (inactive)
CC(C)(C)c1cc(C(c2cccnc2)N2CCN(CCO)CC2)cc(C(C)(C)C)c1O (centres undefined) | 78.8% (inactive)
COc1ccc(OC)c(-c2nc(C(N)=O)c3[nH]c(=O)n(-c4ccc(F)cc4)c3n2)c1 | 104% (inactive)
O=C(c1ccc2c(c1)OCO2)N1CCC2(CC1)Oc1ccc(Cl)cc1C(=O)C21CC(c2ccccc2)=NO1 (centres undefined) | 90.9% (inactive)
O=c1[nH]c(C2CCN(S(=O)(=O)c3ccccc3C(F)(F)F)CC2)nc2c1nnn2Cc1ccccc1 | 92.4% (inactive)
CC(C)=C1C2CCC1C1C(=O)N(c3nc(-c4ccc(C(C)C)cc4)c(C)s3)C(=O)C21 (centres undefined) | 111% (inactive)

Compound | fluorescence response, % of control
Cc1ccc(Cl)cc1N1CCN(c2cccc[n+]2C)CC1 | 95.1% (inactive)
COc1ccc2nccc(/C=C/c3ccnc4ccc(OC)cc34)c2c1 | 126% (inactive)
CCn1ncc(Br)c1C(=O)Nc1sc2c(c1C(=O)OC)CCC2 | 117% (inactive)
Cc1c(NC(=O)c2ncn[nH]2)cccc1-c1nc2ccccc2s1 | 109% (inactive)
O=C1/C(=C\c2ccc(-c3ccccc3Cl)o2)SC(=S)N1CC1CCCO1 (centres undefined) | 150% (inactive)
O=C(COC(=O)c1ccc(Cl)cc1O)NCCN1C(=O)CSC1=O | 88.6% (inactive)
Cc1cccc(C)c1-n1c(SCC(=O)N2CC(=O)Nc3ccccc32)nc2ccccc2c1=O | 118% (inactive)
CCC(=O)N1CCC2(CC1)Oc1ccc(Cl)cc1C(=O)C21CC(c2ccc(Cl)cc2)=NO1 (centres undefined) | 89.8% (inactive)
O=C(O)CCN1C(=O)/C(=C/c2ccc(-c3nc4ccccc4s3)o2)SC1=S | 234% (inactive)
CCCCc1nnc(NC(=O)COc2ccc3c(C)cc(=O)oc3c2)s1 | 134% (inactive)
COCC1CCN(C(=O)c2cc(COc3ccc(OC)c4ccccc34)on2)C1 (centres undefined) | 82.6% (inactive)
COc1ccccc1-c1sc2ccccc2c1-c1ccc(OCCN2CCCCC2)cc1 | 102% (inactive)
CN(C(=O)c1ccc(NC(=O)c2ccco2)cc1)c1ccccc1 | 105% (inactive)
COc1ccc(-c2nc(C(N)=O)c3[nH]c(=O)n(-c4ccccc4OC)c3n2)c(OC)c1 | 74% (inactive)
COc1ccc2c(c1)OC[C@H]1[C@H]2N2C(=O)c3ccc(C)cc3NC(=O)[C@@]2(C)[C@H]1c1ccccc1 | 106% (inactive)
Cc1ccc(CSC2=Nc3ccccc3C3=NC(CC(=O)NCc4ccco4)C(=O)N23)cc1 (centres undefined) | 89% (inactive)
CC(C)c1ccc(C(=O)NC(=S)Nc2ccc3[nH]c(=O)[nH]c3c2)cc1 | 158% (inactive)
CCOC(=O)c1ccc(-c2cc(C)no2)[nH]1 | 99.8% (inactive)
CCCCn1c(=N)n(CC(O)COc2ccc(C)cc2)c2ccccc21 (centres undefined) | 106% (inactive)
COc1ccc(C(=O)NC2CC(C)(C)Cc3c2cnn3-c2ccccc2)c(OC)c1 (centres undefined) | 115% (inactive)

Compound | fluorescence response, % of control
CCCCCCCCCCOC(=O)Cn1c(COc2ccc(Cl)cc2)[n+](C)c2ccccc21 | 106% (inactive)
NC(=O)c1nc(-c2cccs2)nc2c1[nH]c(=O)n2-c1ccc(F)cc1 | 93.5% (inactive)
Cc1cccc(C)c1NC(=O)C1CC2CCC1C2 (centres undefined) | 102% (inactive)
COc1cc(OC)cc(-c2sc3ccc(OC)cc3c2-c2ccc(OCCN3CCOCC3)cc2)c1 | 111% (inactive)
COc1ccc2sc(-c3ccccc3OC)c(-c3ccc(OCCN(C)C)cc3)c2c1 | 118% (inactive)
COc1cccc(-c2sc3cc(OC)c(OC)cc3c2-c2ccc(OCCN3CCCCC3)cc2)c1 | 112% (inactive)
CCN(CC)c1ccc(/C=C/c2cc(-c3ccccc3)c3ccccc3n2)cc1 | 406% (inactive)
COc1ccc(CCOC(=O)c2ccc(N)c([N+](=O)[O-])c2)cc1 | 110% (inactive)
Cc1cc(Cl)c(OCCCn2ccnc2)c(Br)c1 | 83.7% (inactive)
O=C(/C=C/c1ccccc1Cl)NCCc1ccccc1 | 89.7% (inactive)
O=C(COC(=O)c1c2ccccc2cc2ccccc12)Nc1ncc(C(F)(F)F)cc1Cl | 96.4% (inactive)
Cc1ccc(/C=c2\sc3nc(-c4cccs4)nn3c2=O)o1 | 118% (inactive)
CC(C)n1cc(/C=N/NC(=O)COc2cccc3cccnc23)c2ccccc21 | 91.7% (inactive)
COc1ccc2sc(-c3ccccc3OC)c(-c3ccc(OCCN4CCCC4)cc3)c2c1 | 114% (inactive)
O=C(NNc1cc(N2CCCC2)nc(N2CCCC2)n1)c1ccc([N+](=O)[O-])cc1 | 95.7% (inactive)
O=C(Cc1c2ccccc2nc2ccccc12)c1ccccc1 | 98.7% (inactive)
CC(C)C(=O)N1CCC2(CC1)Oc1ccc(F)cc1C(=O)C21CC(c2ccc(Cl)cc2)=NO1 (centres undefined) | 105% (inactive)
CC1(C)Cc2c(cnn2-c2ccc(F)cc2)C(NC(=O)c2cnccn2)C1 (centres undefined) | 102% (inactive)
COc1ccc(N2C(=O)CC(N3CCN(c4ccc(C(=O)c5cccnc5)cc4)CC3)C2=O)cc1 (centres undefined) | 88.6% (inactive)
